Measurements as given in patent publication US9309225B2, “N-((1-benzyl-1H-1,2,3-triazol-4-yl)methyl)arylamide compounds as potential anticancer agents and a process for the preparation thereof” (COUNCIL OF SCIENTIFIC & INDUSTRIAL RESEARCH, priority 2013, dated 2016).
Like-named read-outs stand apart in the source and are kept apart here.

Columns and labels:
MCF-7 [1] = assay: IC50 of compounds and E7010 against MCF-7 cell line; assay type: cell-based
Description: (§1) In the present investigation, an attempt has been made, in view of the biological importance of both 2-anilino nicotinyl structure and 1,2,3-triazoles group. […] Introduction of triazole group on 2-anilino nicotinyl moiety resulted that there is enhancement of biological activity of representative compounds (1a, 1b, 1c, 1d, 1f, 1g, 1i, 1k, 6b and 6g) compare with E7010. Biological data of representative compounds has been provided in Table 1. • (Novel sulfonamides as potential, systemically active antitumor agents. Yoshino, H.; Ueda, N.; Niijima, J.; Sugumi, H.; Kotake, Y.; Koyanagi, N.; Yoshimatsu, K.; Asada, M.; Watanabe, T.; Nagasu, T. J. Med. Chem. 1992, 35, 2496-2497)

A549 [2] = assay: IC50 of compounds and E7010 against A549 cell line; assay type: cell-based
Description: as §1

A549 [3] = settings: A549 cell line; E7010 comparison value (Chem MedChem 2012, 7, 680-693); cited from earlier work
MCF-7 [4] = settings: MCF-7 cell line; E7010 comparison value (Chem MedChem 2012, 7, 680-693); cited from earlier work
[5] = Homo sapiens, MCF7, MCF-7 cell line
[6] = Homo sapiens, A549, A549 cell line

Row | SMILES | melting point [°C] | IC50 (MCF-7 [1]; [5]) [nM] | IC50 (MCF-7 [1]; MCF-7 cell line) [nM] | IC50 (A549 [2]; A549 cell line) [nM] | IC50 (A549 [2]; [6]) [nM] | IC50 (A549 [3]) [nM] | IC50 (MCF-7 [4]) [nM]
1 | O=C(NCc1cn(Cc2cccc(Oc3ccccc3)c2)nn1)c1cccnc1Nc1ccc(Cl)cc1 [Compound 1c, 2-(4-Chlorophenylamino)-N-((1-(3-phenoxybenzyl)-1H-1,2,3-triazol-4-yl)methyl)nicotinamide] | 127 to 129 | – | – | – | – | – | –
2 | COc1cc(Cn2cc(CNC(=O)c3cccnc3Nc3ccc(F)cc3)nn2)cc(OC)c1 [Compound 6b, N-((1-(3,5-Dimethoxybenzyl)-1H-1,2,3-triazol-4-yl)methyl)-2-((4-fluorophenyl)amino) nicotinamide] | 140 to 142 | 740 to 2510 | 1000 | 1250 | 1250 to 3980 | – | –
3 | COc1cc(Cn2cc(CNC(=O)c3cccnc3Nc3ccc(OC)cc3OC)nn2)cc(OC)c1 [Compound 6g, N-((1-(3,5-Dimethoxybenzyl)-1H-1,2,3-triazol-4-yl)methyl)-2-((2,4-dimethoxyphenyl)amino)nicotinamide] | 147 to 149 | 740 to 2510 | 1170 | 1310 | 1250 to 3980 | – | –
4 | COc1ccc(S(=O)(=O)Nc2cccnc2Nc2ccc(O)cc2)cc1 [Compound E7010] | – | – | – | – | – | 4450 | 9060

Second part, led by results:

Row | melting point [°C] | IC50 (MCF-7 [1]; [5]) [nM] | IC50 (MCF-7 [1]; MCF-7 cell line) [nM] | IC50 (A549 [2]; A549 cell line) [nM] | IC50 (A549 [2]; [6]) [nM] | SMILES | IC50 (A549 [3]) [nM] | IC50 (MCF-7 [4]) [nM]
5 | 160 to 162 | 740 to 2510 | 970 | 1900 | 1250 to 3980 | O=C(NCc1cn(Cc2cccc(Oc3ccccc3)c2)nn1)c1cccnc1Nc1ccc(Br)cc1 [Compound 1d, 2-(4-Bromophenylamino)-N-((1-(3-phenoxybenzyl)-1H-1,2,3-triazol-4-yl)methyl)nicotinamide] | – | –
6 | 130 to 132 | – | – | 1900 | 1250 to 3980 | O=C(NCc1cn(Cc2cccc(Oc3ccccc3)c2)nn1)c1cccnc1Nc1cccc(F)c1 [Compound 1f, 2-(3-Fluorophenylamino)-N-((1-(3-phenoxybenzyl)-1H-1,2,3-triazol-4-yl)methyl) nicotinamide] | – | –
